Assay results reported in ChEMBL document CHEMBL5223064, “A review of the latest research on Mpro targeting SARS-COV inhibitors” (RSC Med Chem, 2021).
Peptide text beside a SMILES is read from it.

How the values were obtained:
SARS-CoV-2 = test: Antiviral activity against SARS-CoV-2 USA-WA1/2020 infected in African green monkey Vero 76 cells assessed as reduction in virus-induced cytopathic effect measured after 5 days by neutral red dye uptake analysis; format: functional, organism-based; settings: Severe acute respiratory syndrome coronavirus 2, USA-WA1/2020, Vero 76, 120 h
[1] = Bioavailability in CD-1 mouse at 20 mg/kg, ip measured for 24 hrs by LC-MS/MS analysis; format: ADME, organism-based; settings: in vivo

Row | SMILES | EC50 (SARS-CoV-2) [nM] | bioavailability [1] [%]
1 | CC(C)C[C@H](NC(=O)OCc1ccccc1)C(=O)N[C@@H](C[C@@H]1CCNC1=O)C(O)S(=O)(=O)O (some centres undefined) | 490 | –
2 | O=C[C@H](C[C@@H]1CCNC1=O)NC(=O)[C@H](Cc1cccc(F)c1)NC(=O)c1cc2ccccc2[nH]1 | – | 80
3 | CSCC[C@@H](C=O)NC(=O)[C@H](CC(C)C)NC(=O)[C@H](CC(C)C)NC(C)=O (Ac-Leu-Leu-Met-aldehyde) | 490 | –
4 | CC(C)(C)NC(=O)N[C@H](C(=O)N1C[C@H]2[C@@H]([C@H]1C(=O)NC(CC1CCC1)C(=O)C(N)=O)C2(C)C)C(C)(C)C (some centres undefined) [BOCEPREVIR] | 490 | –
